Each structure is given as a SMILES string. *1 amine or outer side, *2 acyl side, *3 side chain or, on linkers, in order; H or OH if unused. Where a SMILES comes first, the peptide text is derived from it. Bridges are numbered along the chain shown (N, C = ends). [ ]: non-standard residue; d: D form. The star is where a group is joined. Ala(1-(4-CO-Ph)triazol-4-yl) = O=C([C@H](Cc1cn(-c2ccc(C(=O)[*:3])cc2)nn1)N[*:1])[*:2]; X1 = O=C(O)CN1CCN(CC(=O)O)CCN([C@H](CCC(=O)*)C(=O)O)CC1; X2 = Cc1ccc(CCCC(=O)NCCCC[C@H](N*)C(N)=O)cc1; AEEA = NCCOCCOCC(=O)O

Consider one compound from publication PMC12169663, “Deciphering the Tumor Uptake of Heterobivalent (SST2/Albumin) [^64Cu]Cu-NODAGA-cLAB-TATEs” (Journal of Medicinal Chemistry, 2025).

Series [1] relates to MPC tumor-bearing NMRI-nu/nu mice. The series is described as follows: Small-animal PET imaging in subcutaneous MPC tumor allograft model.
Protocol: (§1) The biodistribution of [ ^ 64 Cu]­Cu-NODAGA-cLAB­(5/6)-TATE, [ ^ 64 Cu]­Cu-NODAGA-cLAB4- scr TATE, and [ ^ 64 Cu]­Cu-DOTA-EB-TATE was assessed in a subcutaneous MPC tumor allograft model via small-animal PET imaging (Figure A–D). The time-activity curves (TACs) for tumor, kidneys, and heart are shown in Figure A–D (for TACs of muscle and liver, see Figure S6) and the calculated areas under curves (AUC0–48h) and tumor-to-tissue ratios are graphically summarized in Figure E,F, respectively.
(§2) (A–D) Time-activity curves (SUV, decay-corrected, as a function of time up to 48 h) obtained by PET acquisition are depicted (0–2 h in dynamic mode and time points 5, 24, and 48 h p.i.; the x-axes are segmented accordingly). Data shown are mean values (±SD) of a group of MPC tumor-bearing NMRI-nu/nu mice (n = 2, but for cLAB6-TATE n = 4). […] (E) Calculated AUC0–48h values. Data shown are mean values (±SD). (F) Tumor/organ ratios based in the AUC0–48h values.
(§3) A number of 4 × 10^6 MPC cells were resuspended in 40 μL of Dulbecco’s phosphate-buffered saline and injected subcutaneously into the shoulder of 7–10-week-old female nude mice (Rj:NMRI-Foxn1^nu/nu, Janvier Laboratories, Le Genest-Saint-Isle, France). General anesthesia was induced and maintained with inhalation of 10% (v/v) desflurane in 30% oxygen/air (v/v). Tumor growth was monitored using caliper measurements. Animals were sacrificed using CO2 inhalation and cervical dislocation. When diameters of MPC tumors reached 8 ± 3 mm (volumes of 65–282 mm^3), small-animal positron emission tomography (PET) was performed using the nanoScan PET/CT (Mediso Medical Imaging Systems, Budapest, Hungary) and Si78 PET/CT (BRUKER, Billerica, MA) instruments. Scanners were cross-calibrated using a syringe source containing 10 MBq of [^64Cu]­CuCl2 diluted in 2 mL of 0.01 M HCl. Each mouse (n = 2) received between 7 and 10 MBq of the respective radioligand (A m = 40 GBq/μmoL) delivered in 0.154 M NaCl via intravenous injection through a tail vein catheter within the initial 30 s after scan start. […] Standardized uptake values (SUV = [MBq detected activity/mL tissue]/[MBq injected activity/g body weight]) were determined in defined volumes of interest (VOIs) and reported as VOI-averaged SUVmean ± range [min–max]. Assuming a density of 1 g/mL for body tissues, the SUVs become dimensionless.
Assay in series [2]: as above
As to conditions: female, NMRI-nu/nu (Rj:NMRI-Foxn1nu/nu), mouse, iv, total radioactivity.
Protocol: as §1, §2, §3

Series [3] has as its target T1, SST2 (Mus musculus, UniProt P30875).
T1 construct: a mouse pheochromocytoma cell line (MPC) with a high endogenous abundance of SST2 was used; endogenous in cells; host or cells: MPC (mouse pheochromocytoma) cells, intact
In words: Saturation binding analysis to SST2 using intact MPC cells.
Protocol: Binding assay was performed as previously described. , A number of 3 × 10^5 cells/cm^2 were seeded in collagen-coated 48-well microplates (CELLSTAR 48 Well Cell Culture Multiwell Plates, Polystyrene, Greiner Bio-One, item no. 677180) and grown for 3 days. For binding assays, the cell culture medium was removed and replaced by fresh medium supplemented with the radioligand (Am = 25 MBq/nmol) at increasing final concentrations between 0.321 and 40 nM (final sample volume: 0.2 mL). Nonspecific cell binding was measured in the presence of nonlabeled DOTA-TATE or Acetyl-TATE at a final concentration of 1 μM. Nonspecific binding to plastic surfaces was determined in cell-free wells at radioligand concentrations of 0.312, 1.25, 5, and 20 nM (with and without 1 μM nonlabeled DOTA-TATE or Acetyl-TATE; the values at the other radioligand concentrations were derived by linear regression). Samples were incubated for 60 min at 37 °C. Incubation was stopped by washing with ice-cold Dulbecco’s PBS. Cells were lysed with 0.1 M NaOH containing 1% (w/v) SDS. Activity was measured in cell homogenates and in a series of radioligand standards containing increasing molar amounts between 0.06 and 8 pmol using the gamma counter Wizard (PerkinElmer). The protein content of cell homogenates was measured as described above. Measurements for total binding were performed in triplicate, while measurements for nonspecific binding were performed in duplicates.
Calculations were performed as previously described. , Plots of “total binding” = f(radioligand) were analyzed by nonlinear regressions using the model of “one site-total, accounting for ligand depletion” as implemented in GraphPad Prism and plots of “nonspecific binding” = f(radioligand) were analyzed by linear regressions (Figure S3). For the ligand depletion model, the term “NS” was constrained to the respective slopes obtained by the linear regressions. The terms “SpecAct” (obtained with standard curves, Figure S4) and “Vol” (0.2 mL, assay volume) were also constrained. […]

Series [4] has as its system MPC cells. The series is described as follows: Cell binding and uptake (internalization) in MPC cells. In kind it is cell-based, mouse. The procedure:
Furthermore, the receptor-mediated endocytosis (referred to as internalization) of the novel compounds was assessed. The values for the internalized fraction (or “acid wash” resistant fraction) were >50% (Figure S5), which might indicate a similar pharmacological behavior of these ligands upon binding to SST2 as the parent ligand TATE.
Cell binding and uptake were measured as previously described. , MPC cells were seeded into collagen-coated 24-well microplates and cultivated for 4 days. All washing steps were performed using PBS containing 0.9 mM CaCl2 and 0.5 mM MgCl2. Total radioligand uptake was measured after incubation with the radioligand (A m = 30 GBq/μmol) at a final concentration of 20 nM in RPMI 1640 medium with GlutaMAX supplement (Thermo Fisher Scientific) for 1 h at 37 and 4 °C. Nonspecific binding was determined in the presence of 20 μM Acetyl-TATE. The uptake fraction was measured after acid wash of cell surface-bound radioligand with wash buffer containing 0.05 M glycine, pH 2.8, for 5 min. The activity of cell homogenates was measured using the γ counter Wizard (PerkinElmer). The protein content of cell homogenates was measured as described above.
Figure S5: Cell binding data
Data shown in A and B are mean values (±SD) of one experiment (NODAGA-cLAB(5/6)- TATE and NODAGA-cLAB4-scrTATE) or 3 experiments (±SEM, DOTA-EB-TATE), which were performed in sextuplicate. In C, the amount of specific “internalized” (acid resistant) radioligand (red bars in A, mean values) is expressed as percentage of specific total -bound radioligand (blue bars in A, mean values). The difference to 100% was assigned to “surface - bound” radioligand. For a better overview, the compound names were abbreviated. […]
specific binding of radioligand
Incubation at 37°C for 1 h
(% dose/mg of protein) Washing with
Incubation at 4°C for 1 h […]
(1 picture or pasted object on this page, not shown here)

Series [5] in a line: n-Octanol/PBS distribution coefficient (log D7.4).
Protocol: The log D7.4 values of the ^64Cu-labeled peptides were determined with the octanol partitioning method.
The determination of the log D7.4 value was done in triplicate as previously described. , Briefly, a sample of the radioligand was added to the 1:1 mixture of PBS/n-octanol. The radioactivity in a defined volume of each layer was measured (ISOMED 2100). The distribution coefficient was expressed as the logarithm of the ratio of counts per minute (cpm) measured in the n-octanol phase to the cpm measured in the PBS phase.
Series [6] has as its target HSA (Homo sapiens, UniProt P02768). In words: Estimation of Kd[HSA] from structure-activity relationships of the isolated cLABs. The text has this:
Table S1: Comparison of estimated and determined Kd[HSA] values for the 64Cu-labeled TATE derivatives bearing an albumin […]
predicted determinedi predict./determ. cLAB1 R1-pentanoyl-D-Lys(IPB)-OH 8.0a 3.1j 2.6 cLAB2 R1-benzoyl-L-Lys(IPB)-OH 0.36b 1.8j 0.2 cLAB3 R1-benzoyl-L-Lys(IPB)-NH2 7.9c 9.2j 0.9 […]
cLAB4-scrTATE R1-benzoyl-L-Lys(MPB)-NH2 66d 42 1.6 a Represents the Kd value of the albumin binder (R)-1e (5-N3-pentanoyl-D-Lys(IPB)-OH).1 b Represents the Kd value of the albumin binder (S)-1f (4-N3-benzoyl-L-Lys(IPB)-OH).1 c Calculated using the Kd value of the respective carboxylic acid ((S)-1f) and a factor of 22, which is the factor between Acetyl-L-Lys(IPB)-OH ((S)-1c) an Acetyl-L-Lys(IPB)-NH2 ((S)-2a).1 […]
f Calculated using the Kd value of the respective carboxylic acid ((S)-1f) and the factors of 22 (carboxylic acid → carboxamide) and 2.2 (L → D configuration, factor between (S)-1c and (R)-1c).1 g Represents the Kd value determined for the non-radioactive compound using the fluorescence-based competition […]
h Compound names were abbreviated. i Determined using the radiometric ultrafiltration assay described in the main article. j Previously determined by us.1

T1 sequence (P30875 whole entry): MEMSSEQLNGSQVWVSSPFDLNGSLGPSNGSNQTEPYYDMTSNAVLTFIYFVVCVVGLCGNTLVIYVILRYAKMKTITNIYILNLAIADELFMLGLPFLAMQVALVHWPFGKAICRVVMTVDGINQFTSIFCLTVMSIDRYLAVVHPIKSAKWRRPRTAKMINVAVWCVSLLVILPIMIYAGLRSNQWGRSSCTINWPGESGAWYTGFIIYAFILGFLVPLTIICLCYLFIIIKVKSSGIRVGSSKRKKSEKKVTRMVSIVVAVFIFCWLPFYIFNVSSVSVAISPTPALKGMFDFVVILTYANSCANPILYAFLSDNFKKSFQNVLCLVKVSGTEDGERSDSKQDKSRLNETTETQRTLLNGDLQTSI
HSA, sequence (P02768 25-609): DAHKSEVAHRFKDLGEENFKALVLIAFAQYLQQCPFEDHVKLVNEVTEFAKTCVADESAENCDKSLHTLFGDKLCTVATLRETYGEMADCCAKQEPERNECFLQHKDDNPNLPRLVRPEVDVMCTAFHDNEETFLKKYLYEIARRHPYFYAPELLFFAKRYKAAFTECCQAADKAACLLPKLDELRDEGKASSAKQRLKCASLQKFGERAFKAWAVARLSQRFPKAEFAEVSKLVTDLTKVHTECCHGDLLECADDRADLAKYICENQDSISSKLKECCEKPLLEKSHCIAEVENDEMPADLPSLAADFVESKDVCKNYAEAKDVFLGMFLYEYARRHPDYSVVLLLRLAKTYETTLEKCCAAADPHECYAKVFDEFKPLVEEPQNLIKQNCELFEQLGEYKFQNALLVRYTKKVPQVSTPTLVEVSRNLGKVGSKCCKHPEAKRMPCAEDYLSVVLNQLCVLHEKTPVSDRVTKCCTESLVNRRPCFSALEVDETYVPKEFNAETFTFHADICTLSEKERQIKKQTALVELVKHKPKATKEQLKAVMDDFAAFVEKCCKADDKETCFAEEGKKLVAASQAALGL

Broadly, the logD is lipophilicity at a set pH, counting ionised and neutral species. Low readings indicate lower lipophilicity, high ones higher lipophilicity. For the compound `Cc1ccc(CCCC(=O)NCCCC[C@H](NC(=O)c2ccc(-n3cc(C[C@H](NC(=O)CC[C@H](C(=O)O)N4CCN(CC(=O)O)CCN(CC(=O)O)CC4)C(=O)NCCOCCOCC(=O)N[C@@H](CCCCN)C(=O)N[C@H]4CSSC[C@@H](C(=O)N[C@H](C(=O)O)[C@@H](C)O)NC(=O)[C@@H](Cc5c[nH]c6ccccc56)NC(=O)[C@@H](Cc5ccccc5)NC(=O)[C@H]([C@@H](C)O)NC(=O)[C@H](Cc5ccc(O)cc5)NC4=O)nn3)cc2)C(N)=O)cc1` [[64Cu]Cu-NODAGA-cLAB4-scrTATE, metal not drawn] (X1-[Ala(1-(4-CO-Ph)triazol-4-yl)](X2)[AEEA]KCYT[dF][dW]CT-OH; disulfide 4-9), the “integral tumor uptake relative to [64Cu]Cu-NODAGA-cLAB4-TATE” value in series [1] (AUC0–48h) is recorded as “less than 10%”. Further, in series [1] (PET, i.v., 7–10 MBq/animal), the AUC0-48h heart is given as 41.09 SUVmean*h. In addition, the AUC0-48h kidney in series [1] (PET, i.v., 7–10 MBq/animal) turned out to be 59.26 SUVmean*h. The AUC0-48h liver in series [1] (PET, i.v., 7–10 MBq/animal) was 25.84 SUVmean*h. Besides, the AUC0-48h tumor in series [1] (PET, i.v., 7–10 MBq/animal) is recorded as 25 SUVmean*h; in series [1] (PET, i.v., 7–10 MBq/animal, listed as cLAB4-scrTATE) it was 25.35 SUVmean*h. In series [1] (mouse, in vivo), the “AUC0–48h muscle” value turned out to be 5.5 SUVmean*h. Moreover, in series [1] (mouse, in vivo), the “integral tumor uptake, fold lower than [64Cu]Cu-NODAGA-TATE” value turned out to be 6 fold. Besides, in series [1] (mouse, in vivo), the “integral tumor uptake, fold lower than [64Cu]Cu-NODAGA-cLAB4-TATE” value is on record as 11 fold. Further, the SUV at 24 h in series [2] (muscle) turned out to be 0.04 SUV; in series [2] (tumor), 0.49 SUV. Besides, the “Kd [SST2]” value in series [3] (60 min 37 °C, mean (±SEM) of 2–4 experiments) was “no binding was detected and n.b”. Also, the Bmax result in series [3] (mean (±SEM)) is on record as “n.b”. In series [4] (MPC cells, 20 nM, 1 h), the “binding in the cell binding and uptake assay” value is recorded as “no binding at all”. Also, the “specific binding of radioligand” value in series [4] (incubation at 4 °C for 1 h, washing with PBS pH 7.4, 20 nM) is given as 0.01 % dose/mg of protein; in series [4] (incubation at 4 °C for 1 h, washing with glycine buffer pH 2.8, 20 nM) it was 0.03 % dose/mg of protein; in series [4] (incubation at 37 °C for 1 h, washing with PBS pH 7.4 (total bound), 20 nM), 0.02 %dose/mg of protein; in series [4] (incubation at 37 °C for 1 h, washing with glycine buffer pH 2.8 (acid resistant), 20 nM), 0.04 %dose/mg of protein. Further, the pH-dependent lipophilicity (logD) in series [5] was -2.17. For the same compound, the “Ratio Kd predict./determ.” value in series [6] was 1.6.
